# Source: patent US11753388B2, “Composition for inhibiting alpha-glucosidase and application thereof” (ZHENGZHOU FRUIT RESEARCH INSTITUTE, CHINESE ACADEMY OF …, priority 2021, dated 2023)
# Test system: α-glucosidase
# Assay: in vitro α-glucosidase inhibition test (pNPG substrate, OD 405 nm); combination index by Chou-Talalay method with CompuSyn
# Type: biochemical, Saccharomyces cerevisiae
# Conditions: single compound
# Method: α-glucosidase (coming from Saccharomyces cerevisiae, Sigma);
# an α-glucosidase solution with a concentration being 0.25 U/mL and a substrate p-nitrophenyl-α-D-glucopyranoside (pNPG) solution with a concentration being […] were prepared by using a PBS buffer solution (0.1 mol L−1 pH 6.8).
# 40 μL α-glucosidase solution was accurately removed, 100 μL of sample solution to be tested was added respectively, reacted for 10 min at 37° C., then 60 μL of substrate p-nitrophenyl-α-D-glucopyranoside (pNPG) solution was added, reacted for 15 min at 37° C., and an enzyme-linked analyzer measured at a wavelength of 405 nm.
# First, daidzein, taxifolin, and 3-O-methyl quercetin were respectively prepared into 10 mg/mL mother solutions by using dimethyl sulfoxide (DMSO); and then a sample solution of the specific concentration of the daidzein, taxifolin, and 3-O-methyl quercetin and composition was prepared with PBS buffer solution.
compound,measurement,setting,value
O=c1c(O)c(-c2cc(O)c(O)c(O)c2)oc2cc(O)cc(O)c12 [Myricetin],Inhibition rate,1 μg/mL,41.2 ± 1.5%
COc1ccc(-c2coc3cc(O)cc(O)c3c2=O)cc1 [Biochanin A],Inhibition rate,0.7 μg/mL,38.5 ± 2.1%
O=C(O[C@@H]1Cc2c(O)cc(O)cc2O[C@@H]1c1cc(O)c(O)c(O)c1)c1cc(O)c(O)c(O)c1 [Epigallocatechin gallate],Inhibition rate,0.06 μg/mL,42.5 ± 3.5%
O=c1cc(-c2ccc(O)c(O)c2)oc2cc(O)cc(O)c12 [Luteolin],Inhibition rate,1 μg/mL,45.5 ± 2.7%
Oc1cc(O)c2cc(O)c(-c3cc(O)c(O)c(O)c3)[o+]c2c1.[Cl-] [Delphinidin],Inhibition rate,1 μg/mL,50.2 ± 4.3%
O=C1c2c(O)cc(O)cc2OC(c2ccc(O)cc2O)C1O (stereo not shown) [Dihydromorin],Inhibition rate,15 μg/mL,25.7 ± 4.7%
Vitexin,Inhibition rate,10 μg/mL,29.2 ± 1.4%
O=C1c2c(O)cc(O)cc2O[C@H](c2ccc(O)c(O)c2)[C@H]1O [Taxifolin],Inhibition rate,25 μg/mL,40.12±2.1%
same,Inhibition rate,30 μg/mL,54.5±2.4%
same,Inhibition rate,50 μg/mL,75.21±3.4%
Oc1cc(O)c2cc(O)c(-c3ccc(O)c(O)c3)[o+]c2c1.[Cl-] [Cyanidin],Inhibition rate,0.7 μg/mL,47.5 ± 1.4%
O=c1c(O)c(-c2ccc(O)cc2O)oc2cc(O)cc(O)c12 [Morin],Inhibition rate,1 μg/mL,41.2 ± 2.7%
COc1ccc(-c2coc3cc(O)ccc3c2=O)cc1 [Formononetin],Inhibition rate,20 μg/mL,60.07 ± 5.3%
Chrysin,Inhibition rate,100 μg/mL,51.2 ± 5.5%
Herbacetin,Inhibition rate,2.5 μg/mL,35.2 ± 1.2%
COc1cc(O)c2c(=O)cc(-c3ccc(O)cc3)oc2c1 [Genkwanin],Inhibition rate,35 μg/mL,70.12 ± 5.5%
COc1ccc(-c2oc3cc(O)cc(O)c3c(=O)c2O)cc1 [Kaempferide],Inhibition rate,5 μg/mL,30.8 ± 1.3%
O=c1c(O)c(-c2ccc(O)cc2)oc2cc(O)cc(O)c12 [Kaempferol],Inhibition rate,2.5 μg/mL,40.83 ± 2.3%
COc1ccc(C2CC(=O)c3c(O)cc(O)cc3O2)cc1O (stereo not shown) [Hesperetin],Inhibition rate,30 μg/mL,45.2 ± 3.2%
"COc1c(-c2ccc(O)c(O)c2)oc2cc(O)cc(O)c2c1=O [3-O-methyl quercetin, 3-O-Methyl Quercetin]",Inhibition rate,2 μg/mL,46.23±1.2%
same,Inhibition rate,4 μg/mL,53.52±3.2%
same,Inhibition rate,6 μg/mL,61.72±3.5%
O=c1c(O)c(-c2ccc(O)c(O)c2)oc2cc(O)ccc12 [Fisetin],Inhibition rate,6 μg/mL,46.5 ± 2.3%
O=C(CCc1ccc(O)cc1)c1c(O)cc(O)cc1O [Phloretin],Inhibition rate,8 μg/mL,46.3 ± 2.7%
O=c1c(-c2ccc(O)cc2)coc2cc(O)ccc12 [Daidzein],Inhibition rate,8 μg/mL,44.5±2.5%
same,Inhibition rate,10 μg/mL,52.25±2.5%
O=C(/C=C/c1ccc(O)cc1)c1ccc(O)cc1O [Isoliquiritigenin],Inhibition rate,4 μg/mL,35.2 ± 2.5%
O=c1cc(-c2ccccc2)oc2cc(O)c(O)c(O)c12 [Baicalein],Inhibition rate,10 μg/mL,38.8 ± 3.3%
